Test results published in US20190060463A1, “BRIDGED POLYETHYLENE GLYCOL-ALIPHATIC POLYESTER BLOCK COPOLYMER, PREPARATION METHOD FOR SAME, INTERMEDIATE OF SAME, AND USES THEREOF” (University Of Science And Technology Of China, priority 2015, published 2019).

Test system: MDA-MB-231 in situ breast cancer mouse tumor model
Test: Inhibition of breast cancer growth by nanoparticles carrying docetaxel
Format: in vivo, nude mouse
Conditions: 70 μg DTXL (3.5 mg/kg), 3 administrations, period 7 days
Procedure: In this Example, a MDA-MB-231 in situ breast cancer mouse tumor model was used. The specific process of establishing the model was as follows. MDA-MB-231 cells were cultured in a DMEM complete medium. The cells were cultured with a serum-free DMEM 6 hours before the model was established, and digested with trypsin. The cells were collected by centrifugation at 1000 rpm, and resuspended with PBS to allow the density of the cells to be up to 2×10^7cells/mL. 100 μL of the cell suspension was injected to the second right breast of a nude mouse. In this Example, mPEG113-b-PDLLA72, mPEG113-Dlinkm-PDLLA70, and mPEG113-Dlink-PDLLA75 were used to produce drug loaded nanoparticles.
Nude mice, which were injected with breast cancer cells in situ, were bred in a SPF-level animal room for about 7 days, and visible tumors may be formed. The volume of the tumor was calculated according to the equation: V=0.5*a*b*b, wherein a refers to a longer diameter of the tumor and b refers to a shorter diameter of the tumor. When the tumor volume of the nude mouse reaches about 60 mm^3, treatment was performed. 20 g nude mice inoculated with MDA-MB-231 tumor were divided into 5 groups according to the following manners of treatment, and each group has 5 nude mice. […] A treatment period was 7 days and 3 administrations were performed. The tumor volume was measured every 3 days. […]

## CC(=O)O[C@@]12CO[C@@H]1C[C@H](O)[C@@]1(C)C(=O)[C@H](O)C3=C(C)[C@@H](OC(=O)[C@H](O)[C@@H](NC(=O)OC(C)(C)C)c4ccccc4)C[C@@](O)([C@@H](OC(=O)c4ccccc4)[C@H]21)C3(C)C [DTXL, docetaxel]
  inhibitory effect on tumor growth: no inhibitory effect
